Test results from US11812767B2, “Beverage having Reb D and Reb M” (SUNTORY HOLDINGS LIMITED, priority 2018, dated 2023).
Values belong to the molecule of their own block, whether it stands above or below them.

Experiments:
[1] = cited from earlier work
[2] = Degradation of Reb D and Reb M in phosphate buffer at 40° C. for 8 weeks, analysed by HPLC; assay type: physicochemical; conditions: for % Reb M degradation 2 weeks: 2 weeks at 40° C.; for % Reb M degradation 4 weeks: 4 weeks at 40° C.; for % Reb M degradation 6 weeks: 6 weeks at 40° C.; for % Reb M degradation 8 weeks: 8 weeks at 40° C.
Description: A study was carried out as follows, samples were prepared comprising 50 ppm, 150 ppm, 250 ppm and 400 ppm, of Reb D and samples with the following ratios of Reb D:Reb M 1:4, 1:1, 4:1 wherein the total concentration of the sample was 400 ppm. The samples were prepared in phosphate buffer and the pH was adjusted using phosphoric acid. Samples were prepared at the following pH; 2.0, 2.5, 3.0 and 3.5. These samples were incubated at 40° C. for 8 weeks. This incubation protocol should mimic the degradation at room temperature over 6 months. The amount of Reb D and Reb M in each sample at T=0 was calculated by HPLC this was then used to calculate the amount of remaining Reb M in each sample at each specified time point. Aliquots were taken at 2, 4, 6 and 8 weeks and analysed by HPLC to determine the degradation of Reb D and combinations of Reb D and Reb M over the 8 week study.

[3] = pH 2, Reb D 0.008 % w/w + Reb M 0.032 % w/w
[4] = pH 2, Reb D 0.02 % w/w + Reb M 0.02 % w/w
[5] = pH 2, Reb D 0.032 % w/w + Reb M 0.008 % w/w
[6] = pH 2.5, Reb D 0.008 % w/w + Reb M 0.032 % w/w
[7] = pH 2.5, Reb D 0.02 % w/w + Reb M 0.02 % w/w
[8] = pH 2.5, Reb D 0.032 % w/w + Reb M 0.008 % w/w
[9] = pH 3, Reb D 0.008 % w/w + Reb M 0.032 % w/w
[10] = pH 3, Reb D 0.02 % w/w + Reb M 0.02 % w/w
[11] = pH 3, Reb D 0.032 % w/w + Reb M 0.008 % w/w
[12] = pH 3.5, Reb D 0.008 % w/w + Reb M 0.032 % w/w
[13] = pH 3.5, Reb D 0.02 % w/w + Reb M 0.02 % w/w
[14] = pH 3.5, Reb D 0.032 % w/w + Reb M 0.008 % w/w

Molecule: C=C1C[C@@]23CC[C@H]4[C@@](C)(CCC[C@@]4(C)C(=O)O[C@@H]4O[C@H](CO)[C@@H](O)[C@H](O)[C@H]4O)[C@@H]2CC[C@]1(O[C@@H]1O[C@H](CO)[C@@H](O)[C@H](O)[C@H]1O)C3 [Rubusoside]
Sweetness potency (relative to sucrose) [1]: 114

Molecule: C=C1C[C@@]23CC[C@H]4[C@@](C)(CCC[C@@]4(C)C(=O)O)[C@@H]2CC[C@]1(O[C@@H]1O[C@H](CO)[C@@H](O)[C@H](O)[C@H]1O[C@@H]1O[C@H](CO)[C@@H](O)[C@H](O)[C@H]1O)C3 [Steviolbioside]
Sweetness potency (relative to sucrose) [1]: 90

Molecule: Rebaudioside C
Sweetness potency (relative to sucrose) [1]: 30

Molecule: C=C1C[C@@]23CC[C@H]4[C@@](C)(CCC[C@@]4(C)C(=O)O[C@@H]4O[C@H](CO)[C@@H](O)[C@H](O)[C@H]4O)[C@@H]2CC[C@]1(O[C@@H]1O[C@H](CO)[C@@H](O)[C@H](O)[C@H]1O[C@@H]1O[C@H](CO)[C@@H](O)[C@H](O)[C@H]1O)C3 [Stevioside]
Sweetness potency (relative to sucrose) [1]: 150-250

% Reb M degradation 2 weeks [2, 3]: 28% | % Reb M degradation 4 weeks [2, 3]: 55% | % Reb M degradation 6 weeks [2, 3]: 71% | % Reb M degradation 8 weeks [2, 3]: 80% | % Reb M degradation 2 weeks [2, 4]: 25% | % Reb M degradation 4 weeks [2, 4]: 56% | % Reb M degradation 6 weeks [2, 4]: 69% | % Reb M degradation 8 weeks [2, 4]: 78% | % Reb M degradation 2 weeks [2, 5]: 35% | % Reb M degradation 4 weeks [2, 5]: 59% | % Reb M degradation 6 weeks [2, 5]: 72% | % Reb M degradation 8 weeks [2, 5]: 80% | % Reb M degradation 2 weeks [2, 6]: 3% | % Reb M degradation 4 weeks [2, 6]: 22% | % Reb M degradation 6 weeks [2, 6]: 31% | % Reb M degradation 8 weeks [2, 6]: 38% | % Reb M degradation 2 weeks [2, 7]: 6% | % Reb M degradation 4 weeks [2, 7]: 20% | % Reb M degradation 6 weeks [2, 7]: 29% | % Reb M degradation 8 weeks [2, 7]: 38% | % Reb M degradation 2 weeks [2, 8]: 4% | % Reb M degradation 4 weeks [2, 8]: 18% | % Reb M degradation 6 weeks [2, 8]: 28% | % Reb M degradation 8 weeks [2, 8]: 38% | % Reb M degradation 2 weeks [2, 9]: 0% | % Reb M degradation 4 weeks [2, 9]: 11% | % Reb M degradation 6 weeks [2, 9]: 15% | % Reb M degradation 8 weeks [2, 9]: 17% | % Reb M degradation 2 weeks [2, 10]: 0% | % Reb M degradation 4 weeks [2, 10]: 10% | % Reb M degradation 6 weeks [2, 10]: 14% | % Reb M degradation 8 weeks [2, 10]: 17% | % Reb M degradation 2 weeks [2, 11]: 0% | % Reb M degradation 4 weeks [2, 11]: 7% | % Reb M degradation 6 weeks [2, 11]: 12% | % Reb M degradation 8 weeks [2, 11]: 15% | % Reb M degradation 2 weeks [2, 12]: 0% | % Reb M degradation 4 weeks [2, 12]: 4% | % Reb M degradation 6 weeks [2, 12]: 4% | % Reb M degradation 8 weeks [2, 12]: 6% | % Reb M degradation 2 weeks [2, 13]: 0% | % Reb M degradation 4 weeks [2, 13]: 3% | % Reb M degradation 6 weeks [2, 13]: 4% | % Reb M degradation 8 weeks [2, 13]: 7% | % Reb M degradation 2 weeks [2, 14]: 0% | % Reb M degradation 4 weeks [2, 14]: 0% | % Reb M degradation 6 weeks [2, 14]: 2% | % Reb M degradation 8 weeks [2, 14]: 5%
Molecule: C=C1C[C@@]23CC[C@H]4[C@@](C)(CCC[C@@]4(C)C(=O)O[C@@H]4O[C@H](CO)[C@@H](O)[C@H](O[C@@H]5O[C@H](CO)[C@@H](O)[C@H](O)[C@H]5O)[C@H]4O[C@@H]4O[C@H](CO)[C@@H](O)[C@H](O)[C@H]4O)[C@@H]2CC[C@]1(O[C@@H]1O[C@H](CO)[C@@H](O)[C@H](O[C@@H]2O[C@H](CO)[C@@H](O)[C@H](O)[C@H]2O)[C@H]1O[C@@H]1O[C@H](CO)[C@@H](O)[C@H](O)[C@H]1O)C3 [Reb M, rebaudioside M]
Sweetness potency (relative to sucrose) [1]: 200-250

Molecule: C=C1C[C@@]23CC[C@H]4[C@@](C)(CCC[C@@]4(C)C(=O)O[C@@H]4O[C@H](CO)[C@@H](O)[C@H](O)[C@H]4O)[C@@H]2CC[C@]1(O[C@@H]1O[C@H](CO)[C@@H](O)[C@H](O[C@@H]2O[C@H](CO)[C@@H](O)[C@H](O)[C@H]2O)[C@H]1O[C@@H]1O[C@H](CO)[C@@H](O)[C@H](O)[C@H]1O)C3 [Rebaudioside A]
Sweetness potency (relative to sucrose) [1]: 200-300

Molecule: Rebaudioside F
Sweetness potency (relative to sucrose) [1]: 200

Molecule: C=C1C[C@@]23CC[C@H]4[C@@](C)(CCC[C@@]4(C)C(=O)O[C@@H]4O[C@H](CO)[C@@H](O)[C@H](O)[C@H]4O[C@@H]4O[C@H](CO)[C@@H](O)[C@H](O)[C@H]4O)[C@@H]2CC[C@]1(O[C@@H]1O[C@H](CO)[C@@H](O)[C@H](O)[C@H]1O[C@@H]1O[C@H](CO)[C@@H](O)[C@H](O)[C@H]1O)C3 [Rebaudioside E]
Sweetness potency (relative to sucrose) [1]: 174

Molecule: Rebaudioside B
Sweetness potency (relative to sucrose) [1]: 150
